Data from ChEMBL document CHEMBL1201862, “PubChem BioAssay data set” (2004).
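The compound was tested at five concentrations on cells cultured in 96-well plates, with a 48-hour exposure period. At the GI50, growth is halved.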 Active and inactive are the calls of the source. No stated cut-off is given here; in the data, active = GI50 up to about 1.1 µM and inactive = higher.

Legend:
Assay in all cases: NCI tumour cell line growth inhibition, 48 h
[1] = test system: NCI-H23
[2] = test system: CCRF-CEM
[3] = test system: RXF 393
[4] = test system: SNB-75
[5] = test system: LXFL 529
[6] = test system: SNB-78
[7] = test system: HOP-62
[8] = test system: SK-OV-3
[9] = test system: Malme-3M
[10] = test system: TK-10
[11] = test system: HCT-116
[12] = test system: SW-620
[13] = test system: SNB-19
[14] = test system: LOX IMVI

SMILES | GI50 [1] | GI50 [2] | GI50 [3] | GI50 [4] | GI50 [5] | GI50 [6] | GI50 [7] | GI50 [8] | GI50 [9] | GI50 [10] | GI50 [11] | GI50 [12] | GI50 [13] | GI50 [14]
O=C1CC(c2c[nH]c3ccccc23)C(=O)N1 (configuration not stated) | > 100 µM (inactive) | > 100 µM (inactive) | > 100 µM (inactive) | > 100 µM (inactive) | > 100 µM (inactive) | > 100 µM (inactive) | > 100 µM (inactive) | > 100 µM (inactive) | > 100 µM (inactive) | > 100 µM (inactive) | > 100 µM (inactive) | > 100 µM (inactive) |  | 
CCC(C)(O)c1cn(-c2ccc(Cl)cc2)nn1 (configuration not stated) | > 100 µM (inactive) | > 100 µM (inactive) | > 100 µM (inactive) | > 100 µM (inactive) | > 100 µM (inactive) | > 100 µM (inactive) | > 100 µM (inactive) | > 100 µM (inactive) | > 100 µM (inactive) | > 100 µM (inactive) | > 100 µM (inactive) | > 100 µM (inactive) | > 100 µM (inactive) | > 100 µM (inactive)
C/C(CCn1[nH]c(=O)ccc1=O)=N\O | > 100 µM (inactive) | > 100 µM (inactive) | > 100 µM (inactive) | > 100 µM (inactive) | > 100 µM (inactive) | > 100 µM (inactive) | > 100 µM (inactive) |  | > 100 µM (inactive) | > 100 µM (inactive) | > 100 µM (inactive) | > 100 µM (inactive) | > 100 µM (inactive) | > 100 µM (inactive)
CN1CN(C2OC(CO)C(O)C2O)c2nc(N)[nH]c(=O)c21 (configuration not stated) | > 100 µM (inactive) |  | > 100 µM (inactive) | > 100 µM (inactive) | > 100 µM (inactive) | > 100 µM (inactive) | > 100 µM (inactive) | > 100 µM (inactive) | > 100 µM (inactive) | > 100 µM (inactive) | > 100 µM (inactive) | > 100 µM (inactive) | > 100 µM (inactive) | 
CCSc1nnc(CSc2nc(-c3ccccc3)c(-c3ccccc3)[nH]2)n1-c1ccccc1 | 21 µM (inactive) | 17 µM (inactive) | 25.8 µM (inactive) | 18.4 µM (inactive) | 27.4 µM (inactive) | 41.1 µM (inactive) | 20.2 µM (inactive) | 26.4 µM (inactive) | 20 µM (inactive) | 22.6 µM (inactive) | 18.2 µM (inactive) | 16.6 µM (inactive) | 16.1 µM (inactive) | 22.9 µM (inactive)
COc1cccc2cc(C)c(C(=O)c3ccccc3)nc12 | > 100 µM (inactive) | > 100 µM (inactive) | > 100 µM (inactive) | 91.2 µM (inactive) | > 100 µM (inactive) | > 100 µM (inactive) | > 100 µM (inactive) |  | > 100 µM (inactive) | > 100 µM (inactive) | > 100 µM (inactive) | > 100 µM (inactive) | > 100 µM (inactive) | > 100 µM (inactive)
C[C@]12CC/C(=N\O)C=C1CC[C@@H]1C2CC[C@@]2(C)C1CC[C@@H]2OC1CCCCO1 (some centres not stated) | 17.3 µM (inactive) |  | 25.4 µM (inactive) | 18.9 µM (inactive) | 17.2 µM (inactive) | 19.1 µM (inactive) | 31.2 µM (inactive) | 21.9 µM (inactive) | 21.9 µM (inactive) | 22.8 µM (inactive) | 20.1 µM (inactive) | 18.1 µM (inactive) | 18.3 µM (inactive) | 17.7 µM (inactive)
COc1cc2c(cc1OC)-c1cc(OC)c(OC)cc1[C@H]1CN3CCC[C@@]3(O)C=C21 | < 0.0001 µM (active) | < 0.0001 µM (active) | 0.01 µM (active) | < 0.0001 µM (active) | < 0.0001 µM (active) | < 0.0001 µM (active) | < 0.0001 µM (active) | < 0.0001 µM (active) | < 0.0001 µM (active) | 0.000145 µM (active) | < 0.0001 µM (active) | < 0.0001 µM (active) | < 0.0001 µM (active) | < 0.0001 µM (active)
O=C(Cc1csc(-c2nc(CC(=O)NNc3ccccc3)cs2)n1)NNc1ccccc1 | > 100 µM (inactive) | 34.9 µM (inactive) | > 100 µM (inactive) | > 100 µM (inactive) | 91.2 µM (inactive) | > 100 µM (inactive) | > 100 µM (inactive) | > 100 µM (inactive) | > 100 µM (inactive) | > 100 µM (inactive) | 77.1 µM (inactive) |  | > 100 µM (inactive) | 19.6 µM (inactive)
N#CC1CCCCOCCOCCOCCOCCOCCCCCC1=O (configuration not stated) | > 100 µM (inactive) | > 100 µM (inactive) | > 100 µM (inactive) | > 100 µM (inactive) | > 100 µM (inactive) | > 100 µM (inactive) | > 100 µM (inactive) | > 100 µM (inactive) | > 100 µM (inactive) | > 100 µM (inactive) | > 100 µM (inactive) | > 100 µM (inactive) | > 100 µM (inactive) | > 100 µM (inactive)
COC(=O)C1C2C=CC(C2)C1(C(=O)OC)[S+]([O-])CC12CCC(CC1O)C2(C)C (configuration not stated) | > 100 µM (inactive) | > 100 µM (inactive) | 77.8 µM (inactive) | > 100 µM (inactive) | > 100 µM (inactive) | > 100 µM (inactive) | > 100 µM (inactive) | > 100 µM (inactive) | > 100 µM (inactive) | > 100 µM (inactive) | > 100 µM (inactive) | 16 µM (inactive) | > 100 µM (inactive) | 21.1 µM (inactive)
CCCCCCC(=O)OC[n+]1ccc2c(C)c3[nH]c4ccccc4c3c(C)c2c1 | 0.455 µM (active) |  | 1 µM (active) | 1.85 µM (inactive) | 0.785 µM (active) | 1.09 µM (active) | 2.08 µM (inactive) | 1.83 µM (inactive) | 1.61 µM (inactive) | 3.13 µM (inactive) | 0.376 µM (active) | 0.31 µM (active) |  | 0.537 µM (active)
O=C(NO)C12C3C4C1C1C2C3C41C(=O)NO (configuration not stated) |  | > 100 µM (inactive) | > 100 µM (inactive) | > 100 µM (inactive) | 37.2 µM (inactive) | > 100 µM (inactive) | > 100 µM (inactive) | > 100 µM (inactive) | > 100 µM (inactive) | > 100 µM (inactive) | > 100 µM (inactive) |  | > 100 µM (inactive) | > 100 µM (inactive)
C[C@@H](NC1CCC[C@@H]1O)c1ccccc1 (some centres not stated) |  | > 100 µM (inactive) | > 100 µM (inactive) | > 100 µM (inactive) | > 100 µM (inactive) | > 100 µM (inactive) | > 100 µM (inactive) | > 100 µM (inactive) | > 100 µM (inactive) | > 100 µM (inactive) | > 100 µM (inactive) | > 100 µM (inactive) | > 100 µM (inactive) | > 100 µM (inactive)
CSc1c([S+](C)[O-])[nH]c2cc(Br)cc(Br)c12 (configuration not stated) | 19.3 µM (inactive) | 22.2 µM (inactive) | 14 µM (inactive) | 17.3 µM (inactive) | 21.1 µM (inactive) | 19.3 µM (inactive) |  | 27.9 µM (inactive) | 24.9 µM (inactive) | 27.8 µM (inactive) | 17.6 µM (inactive) | 32.8 µM (inactive) |  | 16.2 µM (inactive)
CC(=O)Oc1ccc(O)c(O)c1C/C=C(\C)CC/C=C(\C)CC/C=C(\C)CCC=C(C)C [TETRAPRENYLPHENOLSUILLIN] | 0.429 µM (active) |  | 1.2 µM (inactive) | 0.439 µM (active) | 0.284 µM (active) | 0.272 µM (active) | 1.24 µM (inactive) |  | 0.274 µM (active) | 1.32 µM (inactive) | 0.287 µM (active) | 0.3 µM (active) | 0.424 µM (active) | 0.247 µM (active)
